This note sets out measurements from patent publication US20260234215A1, “Anti-Inflammatory Bio-Active Collagen Hybridizing Peptides and Methods of Using Thereof” (3HELIX, INC., priority 2023, published 2026).

The test system of this test is Jurkat T-Cells (E6-1 from ATCC). In words: In vitro T-cell activation/inhibition assay (anti-CD3/anti-CD28 stimulation, IL-2 ELISA). It is filed as cell-based, human. The conditions noted are these: 37° C., CHP 100 μM with gelatin 0.5 mg/mL. On the procedure: A particular in vitro activation assay was carried out to evaluate the effects that the anti-inflammatory bioactive LAIR-1 CHPs have on T-cells. Details regarding the experimental conditions for the T-cell assay with Jukat T-cells are depicted in FIG. 13. As shown, Jukat T-cells were incubated with activating antibodies against CD3 and CD28 receptors to initiate activation. […] T-cell activation was then assessed by ELISA for IL-2 secretion in media supernatant. Activated T-cells express high levels of IL-2.
Secreted IL-2 was measured for the following conditions: negative control which were unactivated T cells; positive control T cells which received anti-CD3 and anti-CD28 antibodies; positive control t cells which received stimulating antibodies in the presence of soluble gelatin; and the CHP test condition which received stimulating antibodies in the presence of LAIR1-CHPs.
For the T-cell activation/inhibition experimental protocol, three monomeric CHPs (LAIR-1 HTm CHP1 [SEQ ID NO: 87, wherein x=4 and y=4], LAIR-1 HTm CHP2 [SEQ ID NO: 2, wherein x=4 and y=4], and LAIR-1 HTm CHP3 [SEQ ID NO: 106]) were tested for T-cell activation/inhibition. First, CHPs were incubated with the gelatin under test conditions for at least 24 hours at 37° C. The final gelatin concentration in the media for incubation was 0.5 mg/mL. […]

For Biotin-GGG-(GPO)9 [LAIR-1 HTm CHP3], the “effect on IL 2 production compared to the gelatin positive control” value reads like this: (72 hours post-stimulation) “did not have an effect”; (96 hours post-stimulation) “did not have an effect”.
